# Values of other authors in patent publication US20080108586A1, “COMBINATION THERAPY FOR HUMAN IMMUNODEFICIENCY VIRUS INFECTION” (Incyte Corporation, priority 2006, published 2008).
# Experiments:
# human CCR5 = human CCR5 (Homo sapiens, UniProt P51681)
# rhesus macaque CCR5 = rhesus macaque CCR5 (Macaca mulatta, UniProt P61813)
# Chain of human CCR5 (P51681 whole entry): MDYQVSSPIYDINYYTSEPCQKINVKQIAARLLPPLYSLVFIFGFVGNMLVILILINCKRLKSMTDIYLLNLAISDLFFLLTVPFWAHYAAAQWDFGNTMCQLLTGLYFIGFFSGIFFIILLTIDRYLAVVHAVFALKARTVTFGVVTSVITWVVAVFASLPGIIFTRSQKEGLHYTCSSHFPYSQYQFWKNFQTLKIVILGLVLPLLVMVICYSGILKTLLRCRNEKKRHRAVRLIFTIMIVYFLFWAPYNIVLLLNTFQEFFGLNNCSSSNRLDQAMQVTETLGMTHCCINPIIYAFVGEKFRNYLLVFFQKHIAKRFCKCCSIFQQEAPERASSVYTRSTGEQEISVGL
smiles,measurement,setting,value
"Cc1ncnc(C)c1C(=O)N1CCC(C)(N2CCN([C@@H](C)c3ccc(C(F)(F)F)cc3)[C@@H](C)C2)CC1 [AD101, (4,6-dimethylpyrimidin-5-yl)(4-methyl-4-((S)-3-methyl-4-((S)-1-(4-(trifluoromethyl)-phenyl)ethyl)piperazin-1-yl)piperidin-1-yl)methanone]",inhibition of HIV-1 entry via human CCR5,human CCR5,inhibits
same,inhibition of HIV-1 entry via rhesus macaque CCR5,rhesus macaque CCR5,inhibits
